Experimental data reported in patent US9775902B2, “Compounds and methods for treatment of stroke” (FIBROGEN, INC, priority 2006, dated 2017).

Key:
erythropoietin (EPO) [1] = test: EPO expression in Hep3B cells (QUANTIKINE immunoassay of conditioned media); assay type: cell-based, Human; settings: for Fold Increase Over Control: EPO, vs 1% DMSO control; for EPO: conditioned media after overnight incubation with compound
Description: The effect of compounds of the present invention on expression of cytoprotective and neuroprotective factors in cells was evaluated as follows. Human cells derived from hepatocarcinoma (Hep3B) tissue (see, e.g., American Type Culture Collection, Manassas Va.) were seeded into 35 mm culture dishes and grown at 37° C., 20% O2, 5% CO2 in Minimal Essential Medium (MEM), Earle's balanced salt solution (Mediatech Inc., Herndon Va.), 2 mM L-glutamine, 0.1 mM non-essential amino acids, 1 mM sodium pyruvate, and 10% FBS. When cell layers reached confluence, the media was replaced with OPTI-MEM media (Invitrogen Life Technologies, Carlsbad Calif.) and cell layers were incubated for approximately 24 hours in 20% O2, 5% CO2 at 37° C. Various compounds of the present invention or 1% DMSO (negative control) were then added to existing media and incubation was continued overnight.
Following incubation, the conditioned media was collected from cell cultures and analyzed for erythropoietin (EPO) expression using a QUANTIKINE immunoassay (R&D Systems, Inc., Minneapolis Minn.) according to the manufacturer's instructions.

erythropoietin (EPO) [2] = test: EPO expression in Kelly neuroblastoma cells; assay type: cell-based; settings: for EPO: conditioned media after overnight incubation
Description: (§1) The effect of compounds of the present invention on expression of cytoprotective and neuroprotective factors in neuroblastoma cells was evaluated as follows. Kelly neuroblastoma cells (see, e.g., DSMZ, cat# ACC-355, Braunschweig Germany) were treated with various compounds of the present invention or 1% DMSO (negative control). Following an overnight incubation, the conditioned media was collected from cell cultures and analyzed for erythropoietin (EPO) and vascular endothelial growth factor (VEGF) expression using a QUANTIKINE immunoassay (R&D Systems, Inc., Minneapolis Minn.) according to the manufacturer's instructions.

[3] = tested on: vascular endothelial growth factor (VEGF); test: VEGF expression in Kelly neuroblastoma cells; assay type: cell-based; settings: for VEGF: conditioned media after overnight incubation
Description: as §1

erythropoietin = test: Plasma EPO in mice after intravenous injection; assay type: in vivo, Swiss Webster mice; settings: mouse plasma, 20 mg/kg i.v., four hours after injection; for fold induction at 20 mg/kg: iv, 4 h, read-out: EPO Fold Increase; for EPO: mouse EPO ELISA kit (**)
Description: (§2) The effect of compounds of the present invention on expression of cytoprotective and neuroprotective factors in vivo was evaluated as follows. In one series of experiments, male Swiss Webster mice (29-34 g) were administered various compounds of the present invention via intravenous injection into the caudal tail vein. Animals treated by intravenous injection received a 6 ml/kg volume of either 5% Dextrose with an equimolar amount of NaOH or Meglumine (vehicle control) or 20 mg/kg of a compound of the present invention in 5% dextrose with an equimolar amount of NaOH or Meglumine. Four hours after injection, the animals were anesthetized and exsanguinated. Plasma samples were collected in EDTA and heparin coated microtainer tubes. Plasma samples were assayed for erythropoietin and VEGF using commercially-available ELISA kits purchased from R & D Systems (Minneapolis Minn.).

VEGF = test: Plasma VEGF in mice after intravenous injection; assay type: in vivo, Swiss Webster mice; settings: mouse plasma, 20 mg/kg i.v., four hours after injection; for fold induction at 20 mg/kg: iv, 4 h, read-out: VEGF Fold Increase
Description: as §2

O=C(O)CNC(=O)c1nc2cc(-c3ccc(Cl)cc3)sc2cc1O [Compound Q, {[2-(4-Chloro-phenyl)-6-hydroxy-thieno[3,2-b]pyridine-5-carbonyl]-amino}-acetic acid]
Fold Increase Over Control (erythropoietin (EPO) [1]): 4.8
EPO (erythropoietin (EPO) [1]): 37.1 mIU/ml
EPO Fold Increase (erythropoietin (EPO) [2]): 2.80
EPO (erythropoietin (EPO) [2]): 52.9 mIU/ml
VEGF Fold Increase [3]: 4.4
VEGF [3]: 6369 pg/mL
fold induction at 20 mg/kg (erythropoietin): 1.61
EPO (erythropoietin): 17.1 pg/mL
fold induction at 20 mg/kg (VEGF): 1.28
VEGF (VEGF): 50 pg/mL

O=C(O)CNC(=O)c1nc2cc(Cl)ccc2c(-c2cccc(C(F)(F)F)c2)c1O [Compound AU, {[7-Chloro-3-hydroxy-4-(3-trifluoromethyl-phenyl)-quinoline-2-carbonyl]-amino}-acetic acid]
Fold Increase Over Control (erythropoietin (EPO) [1]): 7.1
EPO (erythropoietin (EPO) [1]): 19.2 mIU/ml
EPO Fold Increase (erythropoietin (EPO) [2]): 4.16
EPO (erythropoietin (EPO) [2]): 109.1 mIU/ml
VEGF Fold Increase [3]: 5.1
VEGF [3]: 6877 pg/mL

CCc1c(O)c(C(=O)NCC(=O)O)nc2cc(Cl)ccc12 [Compound AT, [(7-Chloro-4-ethyl-3-hydroxy-quinoline-2-carbonyl)-amino]-acetic acid]
Fold Increase Over Control (erythropoietin (EPO) [1]): 30.0
EPO (erythropoietin (EPO) [1]): 81.0 mIU/ml
EPO Fold Increase (erythropoietin (EPO) [2]): 31.08
EPO (erythropoietin (EPO) [2]): 587.5 mIU/ml
VEGF Fold Increase [3]: 8.3
VEGF [3]: 11350 pg/mL
fold induction at 20 mg/kg (erythropoietin): 3.84
EPO (erythropoietin): 169 pg/mL
fold induction at 20 mg/kg (VEGF): 1.02
VEGF (VEGF): 43 pg/mL

N#Cc1nc(C(=O)NCC(=O)O)c(O)c2ccc(Cl)cc12 [Compound S, [(7-Chloro-1-cyano-4-hydroxy-isoquinoline-3-carbonyl)-amino]-acetic acid]
Fold Increase Over Control (erythropoietin (EPO) [1]): 10.1
EPO (erythropoietin (EPO) [1]): 12.5 mIU/ml
EPO Fold Increase (erythropoietin (EPO) [2]): 2.89
EPO (erythropoietin (EPO) [2]): 40.4 mIU/ml
VEGF Fold Increase [3]: 1.9
VEGF [3]: 725 pg/mL
fold induction at 20 mg/kg (erythropoietin): 40.8
EPO (erythropoietin): 460.6 pg/mL
fold induction at 20 mg/kg (VEGF): 0.68
VEGF (VEGF): 15 pg/mL

O=C(O)CNC(=O)c1ncc2cc(SC3CCCCC3)ccc2c1O [Compound V, [(7-Cyclohexylsulfanyl-4-hydroxy-isoquinoline-3-carbonyl)-amino]-acetic acid]
EPO Fold Increase (erythropoietin (EPO) [2]): 3.9
EPO (erythropoietin (EPO) [2]): 24.2 mIU/ml
VEGF Fold Increase [3]: 13.5
VEGF [3]: 2132.0 pg/mL

N#Cc1nc(C(=O)NCC(=O)O)c(O)c2ccc(Cc3ccccc3)cc12 [Compound AR, [(7-Benzyl-1-cyano-4-hydroxy-isoquinoline-3-carbonyl)-amino]-acetic acid]
Fold Increase Over Control (erythropoietin (EPO) [1]): 21.8
EPO (erythropoietin (EPO) [1]): 82.7 mIU/ml
EPO Fold Increase (erythropoietin (EPO) [2]): 32.17
EPO (erythropoietin (EPO) [2]): 842.9 mIU/ml
VEGF Fold Increase [3]: 10.8
VEGF [3]: 14745 pg/mL
fold induction at 20 mg/kg (erythropoietin): 22.8
EPO (erythropoietin): 11000 pg/mL
fold induction at 20 mg/kg (VEGF): 0.83
VEGF (VEGF): 29 pg/mL

O=C(O)CNC(=O)c1ncc2c(-c3ccc(F)cc3)c(-c3ccc(F)cc3)sc2c1O [Compound AJ, {[2,3-Bis-(4-fluoro-phenyl)-7-hydroxy-thieno[3,2-c]pyridine-6-carbonyl]-amino}-acetic acid]
Fold Increase Over Control (erythropoietin (EPO) [1]): 42.8
EPO (erythropoietin (EPO) [1]): 62.9 mIU/ml
VEGF Fold Increase [3]: 3.0
VEGF [3]: 4102 pg/mL
fold induction at 20 mg/kg (erythropoietin): 2.53
EPO (erythropoietin): 271 pg/mL
fold induction at 20 mg/kg (VEGF): 1.16
VEGF (VEGF): 29 pg/mL

O=C(O)CNC(=O)c1ncc2cc(Oc3ccccc3)sc2c1O [Compound AG, [(7-Hydroxy-2-phenoxy-thieno[3,2-c]pyridine-6-carbonyl)-amino]-acetic acid]
Fold Increase Over Control (erythropoietin (EPO) [1]): 8.5
EPO (erythropoietin (EPO) [1]): 27.3 mIU/ml
EPO Fold Increase (erythropoietin (EPO) [2]): 14.44
EPO (erythropoietin (EPO) [2]): 273 mIU/ml
VEGF Fold Increase [3]: 5.9
VEGF [3]: 8670 pg/mL
fold induction at 20 mg/kg (erythropoietin): 1.91
EPO (erythropoietin): 303 pg/mL
fold induction at 20 mg/kg (VEGF): 1.76
VEGF (VEGF): 51 pg/mL

O=C(O)CNC(=O)c1nc(Cl)c2ccccc2c1O [Compound A, [(1-Chloro-4-hydroxy-isoquinoline-3-carbonyl)-amino]-acetic acid]
Fold Increase Over Control (erythropoietin (EPO) [1]): 13.6
EPO (erythropoietin (EPO) [1]): 18.3 mIU/ml

N#Cc1nc(C(=O)NCC(=O)O)c(O)c2cccc(Oc3ccccc3)c12 [Compound W, [(1-Cyano-4-hydroxy-8-phenoxy-isoquinoline-3-carbonyl)-amino]-acetic acid]
EPO Fold Increase (erythropoietin (EPO) [2]): 11.35
EPO (erythropoietin (EPO) [2]): 214.6 mIU/ml
VEGF Fold Increase [3]: 5.0
VEGF [3]: 1846 pg/mL
fold induction at 20 mg/kg (erythropoietin): 45.6
EPO (erythropoietin): 725.4 pg/mL
fold induction at 20 mg/kg (VEGF): 1.38
VEGF (VEGF): 40 pg/mL

Cc1nc(C(=O)NCC(=O)O)c(OCc2ccccc2)c2ccc(Oc3ccccc3)cc12 [Compound K, [(4-Benzyloxy-1-methyl-7-phenoxy-isoquinoline-3-carbonyl)-amino]-acetic acid]
Fold Increase Over Control (erythropoietin (EPO) [1]): 1.8
EPO (erythropoietin (EPO) [1]): 57.4 mIU/ml

Cc1nc2ccc(Oc3ccc4c(C#N)nc(C(=O)NCC(=O)O)c(O)c4c3)cc2o1 [Compound AQ, {[1-Cyano-4-hydroxy-6-(2-methyl-benzooxazol-6-yloxy)-isoquinoline-3-carbonyl]-amino}-acetic acid]
Fold Increase Over Control (erythropoietin (EPO) [1]): 16.5
EPO (erythropoietin (EPO) [1]): 32.9 mIU/ml
EPO Fold Increase (erythropoietin (EPO) [2]): 4.34
EPO (erythropoietin (EPO) [2]): 82 mIU/ml
VEGF Fold Increase [3]: 2.6
VEGF [3]: 3795 pg/mL
fold induction at 20 mg/kg (erythropoietin): 23.8
EPO (erythropoietin): 11464 pg/mL
fold induction at 20 mg/kg (VEGF): 1.69
VEGF (VEGF): 59 pg/mL

Cc1nc(C(=O)NCC(=O)O)c(O)c2ccc(Oc3ccccc3)cc12 [Compound J, [(4-Hydroxy-1-methyl-7-phenoxy-isoquinoline-3-carbonyl)-amino]-acetic acid]
EPO (erythropoietin (EPO) [1]): 120.0 mIU/ml

O=C(O)CNC(=O)c1nc2cc(Cl)ccc2c(I)c1O [Compound T, [(7-Chloro-3-hydroxy-4-iodo-quinoline-2-carbonyl)-amino]acetic acid]
Fold Increase Over Control (erythropoietin (EPO) [1]): 49.3
EPO (erythropoietin (EPO) [1]): 100.7 mIU/ml
EPO Fold Increase (erythropoietin (EPO) [2]): 15.83
EPO (erythropoietin (EPO) [2]): 299.1 mIU/ml
VEGF Fold Increase [3]: 5.6
VEGF [3]: 8159 pg/mL
fold induction at 20 mg/kg (erythropoietin): 4.65
EPO (erythropoietin): 498 pg/mL
fold induction at 20 mg/kg (VEGF): 1.24
VEGF (VEGF): 31 pg/mL

O=C(O)CNC(=O)c1nc2ccc(Oc3ccccc3)cc2cc1O [Compound C, [(3-Hydroxy-6-phenoxy-quinoline-2-carbonyl)-amino]-acetic acid]
Fold Increase Over Control (erythropoietin (EPO) [1]): 2.2
EPO (erythropoietin (EPO) [1]): 241.4 mIU/ml
EPO Fold Increase (erythropoietin (EPO) [2]): 3.5
EPO (erythropoietin (EPO) [2]): 21.8 mIU/ml
VEGF Fold Increase [3]: 9.1
VEGF [3]: 1445.7 pg/mL

COc1ccc(Oc2ccc3c(Cl)nc(C(=O)NCC(=O)O)c(O)c3c2)cc1 [Compound H, {[1-Chloro-4-hydroxy-6-(4-methoxy-phenoxy)-isoquinoline-3-carbonyl]-amino}-acetic acid]
Fold Increase Over Control (erythropoietin (EPO) [1]): 5.4
EPO (erythropoietin (EPO) [1]): 84.0 mIU/ml

O=C(O)CNC(=O)c1nc2cc(Cl)ccc2cc1O [Compound B, [(7-Chloro-3-hydroxy-quinoline-2-carbonyl)-amino]-acetic acid]
Fold Increase Over Control (erythropoietin (EPO) [1]): 9.8
EPO (erythropoietin (EPO) [1]): 14.2 mIU/ml

Cc1cccc2c(Cl)nc(C(=O)NCC(=O)O)c(O)c12 [Compound D, [(1-Chloro-4-hydroxy-5-methyl-isoquinoline-3-carbonyl)-amino]-acetic acid]
Fold Increase Over Control (erythropoietin (EPO) [1]): 2.7
EPO (erythropoietin (EPO) [1]): 205.7 mIU/ml

O=C(O)CNC(=O)c1nc(Sc2ccc(Cl)cc2)c2ccccc2c1O [Compound U, {[1-(4-Chloro-phenylsulfanyl)-4-hydroxy-isoquinoline-3-carbonyl]-amino}-acetic acid]
EPO Fold Increase (erythropoietin (EPO) [2]): 1.4
EPO (erythropoietin (EPO) [2]): 8.9 mIU/ml
VEGF Fold Increase [3]: 9.7
VEGF [3]: 1526.0 pg/mL
